Where “and” joins values, the source holds several entries; their conditions need not be identical. Identical values can stand only once.
Tests used:
[1] = Nitric oxide uptake / NO content by mass spectrometry; settings: 100 ppm nitric oxide in helium, 60 min equilibration
Protocol: Some samples (1 ml each) were left open to air in 2.0 ml tubes for 30 minutes prior to dissolved gas analysis. In other experiments the emulsion was placed into a 15 ml tube. The headspace was filled with the gas under study and the gas was allowed to enter the emulsion by equilibration over 60 minutes with the tube on its side to increase the gas emulsion interaction. 50 μL drawn from each of these fluids were injected into a Sievers purge vessel at 37° C. containing 36 ml of a mildly acidic solution consisting of 32 ml of 1M HCL and 4 ml of 0.5M ascorbic acid. […] Signals generated at m/z=32 upon injection of RL and lipid emulsion samples were integrated using Peakfit and compared to those obtained with distilled water.
In another set of experiments we measured the uptake of nitric oxide by a commercially available 20% soybean oil emulsion, Liposyn III 20%. This emulsion contains 20% soybean oil, 1.2% egg phospholipids and 2.5% glycerin in water. Using NaOH pH was adjusted to 8.3. […] 100 ppm nitric oxide in helium was used to purge the hesdspace for two minutes taking care not to bubble the fluid. For sixty minutes the sample was allowed to reach gas-liquid equilibrium with the tube placed on its side to maximize gas-emulsion contact.
The uptake of NO and O2 by a commercial 20% soybean oil emulsion, Liposyn, was measured using mass spectrometry. […] To approximate field conditions, no warming or respiratory support was provided. Next, 55% of blood volume was removed within 2 minutes. […] The time of clinical death was defined as the cessation of respiration. […] In 5 mice a volume of Ringer's lactate equal to the volume of blood removed was administered via the internal jugular vein over 2 minutes immediately after the loss of chest wall movement. […] In 6 mice a volume of Ringer's lactate equal to the volume of blood removed was administered via the carotid artery over 2 minutes. […] In the next set of experiments, infusing Ringers' lactate was delayed for 3 minutes. […] A volume of emulsion equal to the volume of blood that had been removed was infused.

[2] = 1 atm; from The Engineering Toolbox; cited from earlier work
[3] = published value; cited from earlier work

Compound	NO Content, Mean [1]	NO Content, single samples [1]	Oxygen Content at 25° C. and Sea level Pressure [2]	oxygen release time [3]
O [Water]	1.77 mol/L	2.29 mol/L and 1.52 mol/L and 1.63 mol/L and 1.72 mol/L and 1.69 mol/L	8.3 mg/L	
hemoglobin				17.5 ms
